According to patent publication US20110003012A1, “TREATING PATIENTS WITH SUBARACHNOID HEMORRHAGE” (Duke University, priority 2007, published 2011):
Read-outs that look alike come from different tables or passages of the source.

Tests used:
vasospasm = settings: cited from earlier work
subarachnoid hemorrhage [1] = settings: human, in vivo
hemoglobin = test: S-nitrosylation of hemoglobin / blood NO after 3 days exposure to ENO (FIG. 5); format: in vivo; settings: 3 days exposure to 20 ppm ENO
subarachnoid hemorrhage [2] = test: Laser Doppler blood flow in MCA territory and blood pressure 7 days after SAH (Background Example 3); format: in vivo; settings: mice 7 days after SAH
Experimental: Mice were subjected to subarachnoid hemorrhage induced by filament perforation of the right middle cerebral artery (MCA). Mice were allowed to recover for 7 days. The mice were then anesthetized and a laser Doppler flow probe was positioned over the brain within the territory perfused by the MCA and blood pressure was recorded. The animals were allowed to stabilize for 30 minutes (time=1-30 min).

[3] = Blood pressure with or without ENO inhalation in normal mice; settings: inhalation of 20 ppm, n=5 each group
[4] = test system: subarachnoid hemorrhage induced vasospasm; test: Intraluminal filament-induced SAH in mice, ENO inhalation for 3 days (Background Example 2)
[5] = SAH mice, 20 ppm ENO inhalation 3 days, p<0.01
[6] = inhalation at 20 ppm for 3 days

SMILES: O=NO [sodium nitrite]
- Vasospasm compared to control (vasospasm; both regimens: low dose infusion plus bolus, or higher dose infusion without bolus): reduced vasospasm
- Vasospasm reduced to (vasospasm; higher dose infusion, no bolus, two of three cases): 20%
- Transient blood pressure reduction (vasospasm; lower dose infusion over 24 hours plus bolus, after bolus): more than 15%

SMILES: CCCCON=O [butyl nitrite]
- Cerebral infarction (subarachnoid hemorrhage [1]; iv): prevented
- Mean arterial blood pressure reduction (subarachnoid hemorrhage [1]; iv): ≤ 10%
- Vasospasm (subarachnoid hemorrhage [1]; iv): does not occur

SMILES: CCON=O [ENO, ethyl nitrite]
- Red blood cell lysate nitrosothiol (SNO) increase (hemoglobin; FIG. 5A): approximately 4 fold
- Total red blood cell NO (hemoglobin; FIG. 5B): increase
- Change in serum total NO (hemoglobin; FIG. 5C): negligible
- Mean arterial pressure (subarachnoid hemorrhage [2]; 20 ppm ENO added to inspiratory gas): remained unchanged
- Blood flow increase (laser Doppler, MCA territory) (subarachnoid hemorrhage [2]; onset of 20 ppm ENO): 25%
- Cerebral infarction (subarachnoid hemorrhage [1]): prevented
- Vasospasm (subarachnoid hemorrhage [1]): does not occur
- Change in blood pressure [3]: did not cause a change
- Rotarod performance ([4]; 3 days post-SAH, inhalation of 20 ppm, p=0.06): a trend for improvement
- Arterial narrowing (large vessel spasm) [4, 5]: improved
- Decreased forebrain ROD (small vessel spasm) [4, 5]: improved
- Subarachnoid hemorrhage induced vasospasm [4, 6]: attenuated
- Systemic hypotension [4, 6]: without causing systemic hypotension
- Effect in sham surgery mice ([4]; sham surgery, 20 ppm inhalation, n=5 each group, p=0.9): no effect
